What was measured:
[1] = tested on: cancers responsive to paclitaxel; assay: Long term administration of paclitaxel at sub-therapeutic dose levels in cancer treatment; format: in vivo
Excerpt: In rapidly dividing cells as in a tumor, different cells are in different phases of the cell cycle at any given time.
The entire dose is usually given on the first day of the 3 week cycle.

tumor cell lines = settings: cited from earlier work

CC(=O)O[C@H]1C(=O)[C@@]2(C)[C@H]([C@H](OC(=O)c3ccccc3)[C@]3(O)C[C@H](OC(=O)[C@H](O)[C@@H](NC(=O)c4ccccc4)c4ccccc4)C(C)=C1C3(C)C)[C@]1(OC(C)=O)CO[C@@H]1C[C@@H]2O [paclitaxel]
benefit in the treatment of cancers responsive to paclitaxel ([1]; continuous administration over 3 weeks, total cumulative dose e.g. 50-150 mg/m^2): significant benefit is obtained
benefit in the treatment of cancers responsive to paclitaxel ([1]; plasma levels maintained at 0.01-0.05 μg/ml over a week or longer): significant benefit is obtained
concentration at which paclitaxel is active on tumor cell lines (tumor cell lines; in vitro, tumor cell lines): ~0.5 µg/mL
levels high enough to be cytotoxic to the tumor cells (tumor cell lines; tumor cells of the cancer being treated): 500 to 1000 ng/mL

From patent US20070196361A1, “Long term administration of pharmacologically active agents” (priority 1999, published 2007)
